Reference: ChEMBL document CHEMBL4651402, “Screening of ~5500 FDA-approved drugs and clinical candidates for anti-SARS-CoV-2 activity” (2021)
Values joined by “and” are separate entries in the source; they are usually repeats but may differ in a detail not shown here. Equal values may be shown once.

Key:
SARS-CoV-2 [1] = details: vero c1008
SARS-CoV-2 [2] = experiment: microbe, parasite or virus in culture; details: Severe acute respiratory syndrome coronavirus 2, Vero C1008, 48 h
SARS-CoV-2 [3] = experiment: microbe, parasite or virus in culture; assay type: functional, organism-based, Chlorocebus sabaeus, Vero C1008
in vitro = details: chlorocebus sabaeus, Vero E6 (Vero C1008) cells
Vero C1008 = details: chlorocebus sabaeus, vero c1008, 48 h
[4] = Severe acute respiratory syndrome coronavirus 2, Vero C1008, 48 h, read-out: IC50
[5] = Severe acute respiratory syndrome coronavirus 2, Vero C1008, 48 h, read-out: pIC50 (converted)

Row | Compound | IC50 (SARS-CoV-2 [1]) | pIC50 (SARS-CoV-2 [1]) | IC50 (SARS-CoV-2 [3]; [4]) [µM] | IC50 (SARS-CoV-2 [3]; [5]) [µM] | CC50 at 48 h (in vitro; CC50) [µM] | CC50 at 48 h (in vitro; pCC50) [µM] | also measured
1 | COc1cccc([C@@H](C)NCCCc2ccccc2Cl)c1 | > 20 µM | < 4.7 | > 100 | > 100 | 28.2 | 28.2 | IC50 (SARS-CoV-2 [2]): 16.6 µM; IC50 (SARS-CoV-2 [2]; read-out: pIC50 (converted)): 16.6 µM
2 | O=C(O)Cc1cn(-c2ccccc2)nc1-c1ccc(Cl)cc1.O=C(O)Cc1cn(-c2ccccc2)nc1-c1ccc(Cl)cc1.[Ca+2] | – | < 4.7 | – | – | – | – | –
3 | CNC[C@H]1C[C@@H]2c3ccccc3Cc3ccc(F)cc3[C@H]2O1 | – | – | > 100 | > 100 | 19.5 | 19.5 | CC50 (Vero C1008; 48 h): ~22.4 µM; pCC50 (Vero C1008; 48 h): ~ 4.65; IC50 (SARS-CoV-2 [2]): > 100 µM; IC50 (SARS-CoV-2 [2]; read-out: pIC50 (converted)): > 100 µM; pIC50 (SARS-CoV-2 [3]; vero c1008): < 4.3; IC50 (SARS-CoV-2 [3]; vero c1008, read-out: IC50): > 50.1 µM
4 | O=C(O)c1cc(=O)c2c(OCC(O)COc3cccc4oc(C(=O)O)cc(=O)c34)cccc2o1.[NaH] | – | < 4.7 | – | – | – | – | –
5 | O=c1cnn([C@@H]2O[C@H](CO)[C@@H](O)[C@H]2O)c(=O)[nH]1 [6-AZAURIDINE] | > 100 µM | – | – | – | – | – | –
6 | COC(=O)C1=C(C)NC(C)=C(C(=O)OC2CCCN(Cc3ccccc3)C2)C1c1cccc([N+](=O)[O-])c1 (stereo not drawn) [BENIDIPINE] | > 100 µM | – | > 100 | > 100 | 14.8 | 14.8 | –
7 | O=[N+]([O-])c1ccc(Cl)c([N+](=O)[O-])c1 [DINITROCHLOROBENZENE] | > 20 µM | < 4.7 | – | – | – | – | –
8 | O=S(=O)(O)c1cc(O)ccc1O [DOBESILIC ACID] | – | < 4.7 | – | – | – | – | –
9 | CN(C)c1ccc(O)c2c1C[C@H]1C[C@H]3[C@H](N(C)C)C(O)=C(C(N)=O)C(=O)[C@@]3(O)C(O)=C1C2=O.Cl [MINOCYCLINE HYDROCHLORIDE] | – | < 4.7 | – | – | – | – | –
10 | OC(CNCC(O)C1CCc2cc(F)ccc2O1)C1CCc2cc(F)ccc2O1 (stereo not drawn) [NEBIVOLOL] | > 20 µM | < 4.7 | > 100 | > 100 | 8.71 | 8.71 | IC50 (SARS-CoV-2 [2]): > 10 µM; IC50 (SARS-CoV-2 [2]; read-out: pIC50 (converted)): > 10 µM
11 | CC(Cc1ccccc1)NCCC(c1ccccc1)c1ccccc1 (stereo not drawn) [PRENYLAMINE] | 8.51 µM and > 20 µM | 5.07 and < 4.7 | > 100 | > 100 | 10.7 | 10.7 | –
12 | CC1(C)[C@H](C(=O)[O-])N2C(=O)C[C@H]2S1(=O)=O.[Na+] [SULBACTAM SODIUM] | – | < 4.7 | – | – | – | – | –
13 | CCCCCCCCNC(C)C(O)c1ccc(SC(C)C)cc1 (stereo not drawn) [SULOCTIDIL] | > 100 µM | – | > 100 | > 100 | 3.27 | 3.24 | –
14 | OCCN1CCN(CC/C=C2/c3ccccc3Sc3ccc(Cl)cc32)CC1 [ZUCLOPENTHIXOL] | 7.24 µM and > 20 µM | 5.14 and < 4.7 | > 100 | > 100 | 6.68 | 6.61 | –
15 | ATSM COPPER (II) | > 20 µM | < 4.7 | – | – | – | – | –
16 | FLUPENTIXOL | 8.71 µM and > 20 µM | 5.06 and < 4.7 | – | – | – | – | CC50 (Vero C1008): 7.67 µM; pCC50 (Vero C1008): 5.12; pIC50 (SARS-CoV-2 [3]; vero c1008): < 4; IC50 (SARS-CoV-2 [3]; vero c1008, read-out: IC50): > 100 µM
17 | NYSTATIN | > 20 µM | < 4.7 | – | – | – | – | –
18 | RAUWOLFIA SERPENTINA | > 20 µM | < 4.7 | – | – | – | – | –
